Read-outs that look alike come from different tables or passages of the source.
Experiments:
[1] = system: engorged adult female cattle ticks (Boophilus microplus); test: Boophilus microplus injection test; format: in vivo; details: application rate 20 μg/animal, assessed after 7 days
Description: Boophilus microplus—Injection Test
Solvent: dimethyl sulphoxide
To produce an appropriate active ingredient formulation, 10 mg of active ingredient are mixed with 0.5 ml of solvent and the concentrate is diluted with solvent to the desired concentration.
1 μl of the active ingredient solution is injected into the abdomen of 5 engorged adult female cattle ticks (Boophilus microplus). The animals are transferred into dishes and kept in a climate-controlled room.
The efficacy is assessed after 7 days by laying of fertile eggs. Eggs which are not visibly fertile are stored in a climate-controlled cabinet until the larvae hatch after about 42 days. An efficacy of 100% means that none of the ticks has laid any fertile eggs; 0% means that all the eggs are fertile.

[2] = system: greenhouse red spider mite (Tetranychus urticae); test: Tetranychus urticae spray test, OP-resistant (bean leaf discs); format: in vivo; details: after 6 days; for pest or weed control at 500 g/ha: Tetranychus urticae, foliar, 144 h, read-out: efficacy (spider mites killed)
Description: Tetranychus urticae—Spray Test, OP-Resistant
Solvent: 78.0 parts by weight of acetone • • 1.5 parts by weight of dimethylformamide
Emulsifier: alkylaryl polyglycol ether
To produce an appropriate active ingredient formulation, 1 part by weight of active ingredient is dissolved using the specified parts by weight of solvent and made up with water containing an emulsifier concentration of 1000 ppm until the desired concentration is attained. To produce further test concentrations, the preparation is diluted with emulsifier-containing water.
Discs of bean leaves (Phaseolus vulgaris) infested by all stages of the greenhouse red spider mite (Tetranychus urticae) are sprayed with an active ingredient formulation of the desired concentration.
After 6 days, the efficacy in % is determined. 100% means that all the spider mites have been killed; 0% means that none of the spider mites have been killed.

[3] = log P by reversed-phase HPLC analogously to OECD Guideline 117; format: physicochemical; details: for chromatographic logP: reversed-phase C18 HPLC column
Description: The log P values were determined analogously to OECD Guideline 117 (EC Directive 92/69/EEC) by HPLC (high-performance liquid chromatography) using reversed-phase columns (C 18), by the following methods:
[a] LC-MS determination in the acidic range is effected at pH 2.7 with 0.1% aqueous formic acid and acetonitrile (containing 0.1% formic acid) as eluents with a linear gradient from 10% acetonitrile to 95% acetonitrile; or with 0.025% aqueous trifluoroacetic acid and acetonitrile (containing 0.025% trifluoroacetic acid) as eluents with a linear gradient from 50% acetonitrile to 80% acetonitrile.
[b] LC-MS determination in the neutral range is effected at pH 7.8 with 0.001 molar aqueous ammonium hydrogencarbonate solution and acetonitrile as eluents; linear gradient from 10% acetonitrile to 95% acetonitrile.
Calibration is effected with solutions of a homologous series of unbranched alkan-2-ones (having 3 to 16 carbon atoms) with known log P values (log P values determined on the basis of the retention times by linear interpolation between two successive alkanones).

[4] = system: southern root-knot nematode (Meloidogyne incognita); test: Meloidogyne incognita test (sand, lettuce, acetone solvent, 14 days); format: in vivo; details: application rate 20 ppm, after 14 days; for pest or weed control at 20 ppm: Meloidogyne incognita, 336 h, read-out: nematicidal efficacy (formation of galls)
Description: Meloidogyne incognita Test
Solvent: 125.0 parts by weight of acetone
To produce an appropriate active ingredient formulation, 1 part by weight of active ingredient is mixed with the stated amount of solvent and the concentrate is diluted with water to the desired concentration.
Vessels are filled with sand, active ingredient solution, an egg/larvae suspension of the southern root-knot nematode (Meloidogyne incognita) and lettuce seeds. The lettuce seeds germinate and the plants develop. The galls develop on the roots
After 14 days, the nematicidal efficacy in % is determined by the formation of galls. 100% means that no galls were found; 0% means that the number of galls on the treated plants corresponds to the untreated control.

[5] = [a] acidic range, pH 2.7, formic acid (or trifluoroacetic acid)/acetonitrile
[6] = pH 2.7, running text, [a] acidic range, pH 2.7, read-out: log P[a]
[7] = pH 2.7, table column, [a] acidic range, pH 2.7, formic acid (or trifluoroacetic acid)/acetonitrile, read-out: LogP[a]
[8] = pH 7.8, running text, [b] neutral range, pH 7.8, read-out: log P[b]
[9] = pH 7.8, table column, [b] neutral range, pH 7.8, ammonium hydrogencarbonate/acetonitrile, read-out: LogP[b]
[10] = [b] neutral range, pH 7.8, ammonium hydrogencarbonate/acetonitrile

Row | chromatographic logP [3, 6] | chromatographic logP [3, 7] | chromatographic logP [3, 8] | chromatographic logP [3, 9] | SMILES | efficacy (no fertile eggs laid) [1] [%] | efficacy (spider mites killed) ([2]; application rate 500 g/ha) [%] | LogP[a] [3, 5] | pest or weed control at 500 g/ha ([2]; application rate 500 g/ha) [%] | pest or weed control at 20 ppm [4] [%] | nematicidal efficacy (formation of galls) [4] [%] | LogP[b] [3, 10] | efficacy (spider mites killed) ([2]; application rate 100 g/ha) [%]
1 | – | – | – | – | Cc1cc(C)c([S+]([O-])CC(F)(F)F)cc1-n1ncc(=O)n(C)c1=O (racemic) [compound 4] | 100 | 100 | 2.01 | – | – | – | – | –
2 | 2.94 | 2.94 | – | – | Cc1cc(F)c(-n2ncc(=O)n(C)c2=O)cc1SCC(F)(F)F [Ex. No. 3, 2-{2-Fluoro-4-methyl-5-[(2,2,2-trifluoroethyl)sulphanyl]phenyl}-4-methyl-1,2,4-triazine-3,5(2H,4H)-dione] | 100 | – | – | 100 | 90 | – | – | –
3 | 1.66 | 1.61 | 1.61 | 1.66 | Cc1cc(F)c(-n2ccc(=O)n(C)c2=O)cc1[S+]([O-])CC(F)(F)F (stereo not shown) [Ex. No. 54, 1-{2-Fluoro-4-methyl-5-[(2,2,2-trifluoroethyl)sulphinyl]phenyl}-3-methylpyrimidine-2,4(1H,3H)-dione] | 100 | – | – | 100 | 100 | – | – | –
4 | – | – | – | – | Cc1cc(C)c([S+]([O-])CC(F)(F)F)cc1-n1ncc(=O)n(CC(F)(F)F)c1=O (racemic) [compound 6] | 100 | 90 | 2.73 | – | – | – | – | –
5 | – | – | – | – | CCn1c(=O)cnn(-c2cc(SCC(F)(F)F)c(C)cc2F)c1=O [compound 19] | 100 | 100 | 3.31 | – | – | 90 | 3.27 | –
6 | – | – | – | – | O=c1cnn(-c2cc([S+]([O-])CC(F)(F)F)c(Cl)cc2Cl)c(=O)n1CC(F)(F)F (racemic) [compound 11] | 100 | 100 | 3.21 | – | – | 90 | – | –
7 | – | – | – | – | Cc1ccc(-n2ccc(=O)n(CC#N)c2=O)cc1SCC(F)(F)F [compound 85] | – | 100 | 2.55 | – | – | 90 | 2.62 | –
8 | – | – | – | – | CCn1c(=O)ccn(-c2cc([S+]([O-])CC(F)(F)F)c(C)cc2C)c1=O (stereo not shown) [compound 97] | – | 100 | 1.96 | – | – | 90 | 1.99 | –
9 | – | – | – | – | CCn1c(=O)cnn(-c2cc([S+]([O-])CC(F)(F)F)c(C)cc2F)c1=O (racemic) [compound 21] | 100 | 100 | 2.24 | – | – | 100 | 2.22 | –
10 | – | – | – | – | Cc1cc(F)c(-n2ccc(=O)n(CC#N)c2=O)cc1SCC(F)(F)F [compound 73] | – | 90 | 2.62 | – | – | 100 | 2.65 | –
11 | – | – | – | – | CCn1c(=O)ccn(-c2ccc(C)c([S+]([O-])CC(F)(F)F)c2)c1=O (stereo not shown) [compound 98] | – | 100 | 1.77 | – | – | 100 | 1.77 | –
12 | – | – | – | – | Cc1cc(F)c(-n2ncc(=O)n(CC(C)C)c2=O)cc1[S+]([O-])CC(F)(F)F (racemic) [compound 22] | 100 | 100 | 2.92 | – | – | 90 | 2.9 | –
13 | – | – | – | – | Cn1c(=O)cnn(-c2cc(SCC(F)(F)F)c(Cl)cc2Cl)c1=O [compound 14] | – | 100 | 3.31 | – | – | 90 | – | –
14 | – | – | – | – | Cc1cc(F)c(-n2ncc(=O)n(CC(C)C)c2=O)cc1SCC(F)(F)F [compound 20] | 100 | 100 | 4.03 | – | – | 90 | 4 | –
15 | – | – | – | – | Cc1cc(F)c(-n2ccc(=O)n(CC#N)c2=O)cc1[S+]([O-])CC(F)(F)F (racemic) [compound 61] | – | 90 | 1.72 | – | – | 100 | 1.73 | –
16 | 2.59 | 2.53 | 2.53 | 2.59 | Cc1cc(F)c(-n2ccc(=O)n(C)c2=O)cc1SCC(F)(F)F [Ex. No. 53, 1-{2-Fluoro-4-methyl-5-[(2,2,2-trifluoroethyl)sulphanyl]phenyl}-3-methylpyrimidine-2,4(1H,3H)-dione] | – | – | – | 90 | 100 | – | – | –
17 | – | – | – | – | Cc1cc(C)c(-n2ccc(=O)n(C)c2=O)cc1SCC(F)(F)F [compound 92] | – | 90 | 2.66 | – | – | 90 | 2.72 | –
18 | – | – | – | – | C=CCn1c(=O)ccn(-c2cc([S+]([O-])CC(F)(F)F)c(C)cc2F)c1=O (racemic) [compound 65] | – | – | 2.01 | – | – | 100 | 2.08 | 90
19 | – | – | – | – | Cc1cc(F)c(-n2ncc(=O)n(CC(F)(F)F)c2=O)cc1[S+]([O-])CC(F)(F)F (racemic) [compound 9] | 100 | 100 | 2.65 | – | – | 100 | – | –
20 | – | – | – | – | Cc1cc(C)c([S+]([O-])CC(F)(F)F)cc1-n1ccc(=O)n(CC(F)(F)F)c1=O (stereo not shown) [compound 95] | – | 100 | 2.40 | – | – | 100 | 2.44 | –
21 | – | – | – | – | Cc1cc(F)c(-n2ccc(=O)n(CC3CC3)c2=O)cc1[S+]([O-])CC(F)(F)F (racemic) [compound 62] | – | 90 | 2.29 | – | – | 100 | 2.37 | –
22 | – | – | – | – | O=c1cnn(-c2cc(SCC(F)(F)F)c(Cl)cc2Cl)c(=O)n1CC(F)(F)F [compound 12] | – | 90 | 3.93 | – | – | 90 | – | –
23 | 2.48 | 2.39 | 2.39 | 2.48 | Cc1ccc(-n2ccc(=O)n(C)c2=O)cc1SCC(F)(F)F [Ex. No. 58, 3-Methyl-1-{4-methyl-3-[(2,2,2-trifluoroethyl)sulphanyl]phenyl}pyrimidine-2,4(1H,3H)-dione] | – | – | – | 90 | 100 | – | – | –
24 | – | – | – | – | Cc1cc(F)c(-n2ccc(=O)n(Cc3ccc(F)cc3)c2=O)cc1SCC(F)(F)F [compound 76] | – | 90 | 3.56 | – | – | 100 | 3.74 | –
25 | – | – | – | – | Cc1cc(F)c(-n2ccc(=O)n(CC(F)F)c2=O)cc1[S+]([O-])CC(F)(F)F (stereo not shown) [compound 70] | – | 90 | 2.06 | – | – | 100 | 2.11 | –
26 | – | – | – | – | Cc1cc(F)c(-n2ccc(=O)n(CC(F)(F)F)c2=O)cc1SCC(F)(F)F [compound 72] | – | 90 | 3.16 | – | – | 100 | 3.29 | –
